Laboratory results as given in patent US20060063759A1, “Tricyclic steroid hormone nuclear receptor modulators” (priority 2002, published 2006).
pKi: −log10 of the molar value. Read-outs that look alike come from different tables or passages of the source.

How the values were obtained:
human MR = molecular target: T1, human MR (Homo sapiens, UniProt P08235); experiment: Mineralocorticoid Receptor Binding Assay ([3H]-aldosterone)
T1 construct: The full length human MR gene is cloned from a human kidney or human brain cDNA library; His tag from the pAcHLT vector (own knowledge); made in house; host or cells: Sf9 insect cells (baculovirus, pAcHLT transfer vector)
T1 sequence (P08235 1-984): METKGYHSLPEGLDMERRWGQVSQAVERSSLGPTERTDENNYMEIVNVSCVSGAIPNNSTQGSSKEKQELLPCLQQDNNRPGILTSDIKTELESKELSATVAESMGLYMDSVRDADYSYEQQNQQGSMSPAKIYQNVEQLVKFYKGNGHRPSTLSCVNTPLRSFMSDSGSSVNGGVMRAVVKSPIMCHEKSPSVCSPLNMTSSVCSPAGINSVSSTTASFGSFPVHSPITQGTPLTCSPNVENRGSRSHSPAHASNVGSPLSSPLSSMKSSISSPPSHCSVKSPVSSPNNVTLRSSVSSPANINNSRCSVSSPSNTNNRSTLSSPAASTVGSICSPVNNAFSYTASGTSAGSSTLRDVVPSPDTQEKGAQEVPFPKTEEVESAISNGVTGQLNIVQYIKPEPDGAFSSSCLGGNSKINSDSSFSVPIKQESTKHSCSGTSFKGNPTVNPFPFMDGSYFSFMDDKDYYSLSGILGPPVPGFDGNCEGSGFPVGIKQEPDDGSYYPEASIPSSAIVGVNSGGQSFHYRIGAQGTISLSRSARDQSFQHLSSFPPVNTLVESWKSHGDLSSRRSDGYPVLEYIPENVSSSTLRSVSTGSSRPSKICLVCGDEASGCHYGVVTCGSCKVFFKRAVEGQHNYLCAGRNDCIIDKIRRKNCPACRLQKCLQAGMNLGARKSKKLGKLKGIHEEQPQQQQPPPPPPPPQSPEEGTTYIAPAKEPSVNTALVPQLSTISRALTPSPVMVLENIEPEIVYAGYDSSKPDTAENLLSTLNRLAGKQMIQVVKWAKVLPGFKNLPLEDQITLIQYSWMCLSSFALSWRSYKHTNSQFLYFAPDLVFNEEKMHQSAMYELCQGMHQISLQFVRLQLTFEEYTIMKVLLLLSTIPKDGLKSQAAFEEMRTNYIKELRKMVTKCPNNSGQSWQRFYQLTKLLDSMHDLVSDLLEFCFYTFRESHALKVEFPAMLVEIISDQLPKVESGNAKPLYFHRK
Protocol: (§1) All ligands, radioligands, solvents, and reagents employed in the binding assays are readily available from commercial sources, or can be readily synthesized by the ordinarily skilled artisan.
The full length human MR gene is cloned from a human kidney or human brain cDNA library. […] The PCR reaction is performed in a final volume of 50 μl containing about 1 μl of a 50× stock solution of polymerase; about 1 μl of a 50× stock solution of dNTP; about 5 μl of an appropriate PCR buffer; about 1 μl of each primer; about […] of a H. kidney or H. brain cDNA library; and about 36 μl of water. The reaction is allowed to denature for about 30 seconds at 95 degrees Celsius, anneal for about 30 seconds at 55 degrees Celsius, and extend for about 5 minutes at 72 degrees Celsius, the sequence being repeated for a total of about 35 cycles. […] To extract the cDNA product from the agarose gel, the QIAEX II Gel Extraction protocol (QIAGEN, Inc.) is employed according to the manufacturer's instructions. Following extraction, the MR cDNA is cloned into an appropriate cloning vector (Zero Blunt TOPO PCR Cloning Kit Invitrogen, Inc.) and a pAcHLT-baculovinis transfer vector (B.D./Pharminogen), then expressed in SF9 insect cells, essentially according to manufacturer's instructions. Sf9 cells are grown at a scale where gram quantity cell pellets are obtained for subsequent use in the MR binding assay. Harvested cell pellets are lysed by repeated freeze-thaw cycles (about 4) in a suitable lysis buffer then centrifuged at about 1×10^3 G (with the supernatant being saved for future assays).
MR binding assays are performed in a final total volume of about 250 μl containing about 20-25 μg of protein and 0.5 nM of [^3H]-aldosterone plus varying concentrations of test compound or vehicle. The assay binding buffer consists of 30 mM sodium molybdate, 30 mM of TRIS-HCl, 5 mM sodium phosphate, 5 mM sodium pyrophosphate, and about 10% glycerol, pH=7.5.
Incubations are carried out at 4 degrees Celsius with shaking for about 16 hours. 200 μl aliquots of each incubation are filtered onto Millipore HA 0.45 micron 96-well filter plates, pre-moistened with cold 30 mM TRIS-HCl. The filter plates are suctioned dry with vacuum and immediately washed 3× with cold 30 mM TRIS-HCl. The plates are then punched out and the amount of receptor-ligand complex is determined by liquid scintillation counting using 4 ml of Ready Protein Plus™ liquid scintillation cocktail.
IC50 values (defined as the concentration of test compound required to decrease [^3H]-aldosterone binding by 50%/o) are then determined.

glucocorticoid receptor = molecular target: T2, glucocorticoid receptor (Homo sapiens, UniProt P04150); experiment: Glucocorticoid Receptor Binding Assay ([3H]-dexamethasone, A549 cell extract); details: [3H]-dexamethasone binding, read-out: GR Ki
T2 construct: containing 50-200 ug of A549 cell extract and 1.86 nM [^3H]-dexamethasone; host or cells: A549 human lung epithelial cells (sonicated cell extract)
T2 sequence (P04150 1-777): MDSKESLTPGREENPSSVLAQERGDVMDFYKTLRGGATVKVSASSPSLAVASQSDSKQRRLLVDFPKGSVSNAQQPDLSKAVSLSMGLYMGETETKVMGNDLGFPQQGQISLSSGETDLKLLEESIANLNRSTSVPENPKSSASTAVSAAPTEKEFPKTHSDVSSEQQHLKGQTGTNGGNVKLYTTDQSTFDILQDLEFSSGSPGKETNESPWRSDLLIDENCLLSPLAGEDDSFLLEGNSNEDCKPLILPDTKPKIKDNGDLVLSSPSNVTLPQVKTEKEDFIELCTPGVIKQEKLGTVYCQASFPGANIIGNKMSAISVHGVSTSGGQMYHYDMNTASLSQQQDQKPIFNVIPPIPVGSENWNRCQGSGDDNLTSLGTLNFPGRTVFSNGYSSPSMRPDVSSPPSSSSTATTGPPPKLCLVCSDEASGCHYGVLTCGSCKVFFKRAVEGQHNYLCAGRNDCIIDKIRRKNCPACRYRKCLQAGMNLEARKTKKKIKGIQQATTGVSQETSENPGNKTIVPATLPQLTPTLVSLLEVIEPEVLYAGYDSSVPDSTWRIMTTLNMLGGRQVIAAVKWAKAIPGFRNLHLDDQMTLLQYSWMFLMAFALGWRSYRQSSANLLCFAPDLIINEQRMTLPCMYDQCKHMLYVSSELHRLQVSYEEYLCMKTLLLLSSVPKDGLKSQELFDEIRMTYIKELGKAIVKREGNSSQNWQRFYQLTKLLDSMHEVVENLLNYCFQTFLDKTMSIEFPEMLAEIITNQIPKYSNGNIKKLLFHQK
Protocol: as §1
A549 human lung epithelial cells (ATCC) are grown at a scale where gram quantity cell pellets are obtained. Harvested cell pellets are washed twice in cold phosphate buffered saline, centrifuged, and resuspended in cold assay binding buffer. The assay binding buffer consists of 10% glycerol, 50 mM Tris-HCl (pH7.2), 75 mM sodium chloride, 1.5 mM magnesium chloride, 1.5 mM EDTA, and 10 mM sodium molybdate. Cell suspensions were lysed via sonication, centrifuged, and the “extract” supernatant is snap frozen and stored at −80 C until needed.
GR binding assays are performed in a final volume of 140 ul containing 50-200 ug of A549 cell extract and 1.86 nM [^3H]-dexamethasone (Amersham) plus varying concentrations of test compound or vehicle. Briefly, assays are prepared at RT in 96-well Fisher 3356 plates, each well containing 100 ul of A549 cell extract, 20 ul of [^3H]-dexamethasone, and 20 ul of test compound/vehicle. Incubations are carried out at 4 degrees Celsius for 16 hours. After incubation, 70 ul of 3× dextran-coated charcoal solution is added to each reaction, mixed, and incubated for 8 minutes at RT. 3×-dextran-coated charcoal solution consists of 250 ml assay binding buffer, 3.75 g Norit A charcoal (Sigma), and 1.25 g dextran T-70 (Amersham). Charcoal/unbound radioligand complexes are removed by centrifugation of the plate and 140 ul of supernatant from each well is transferred to another 96 well Optiplate (Packard Instruments). 200 ul of Microscint-20 scinillant (Packard Instruments) is added to each well and amount of receptor bound radioligand is determined using Packard Instruments TopCount instrument.

[1] = [3H]-aldosterone binding, human MR expressed in Sf9 cells, read-out: MR Ki

Work on CS(=O)(=O)Nc1cccc(C=C2c3ccccc3CCc3cc(O)ccc32)c1 (mixture of isomers) [Example 162, N-[3-(2-Hydroxy-10,11-dihydro-dibenzo[a,d]cyclohepten-5-ylidenemethyl)-phenyl]-methanesulfonamide] yielded a pKi (human MR; [1]) greater than 6.30 and a pKi (glucocorticoid receptor) greater than 6.30.

CCS(=O)(=O)Nc1cccc(C=C2c3ccccc3CCc3cc(OC)ccc32)c1 (mixture of isomers) [Example 163, Ethanesulfonic acid [3-(2-methoxy-10,11-dihydro-dibenzo[a,d]cyclohepten-5-ylidenemethyl)-phenyl]-amide] was tested, and the pKi (human MR; [1]) was greater than 6.30 and the pKi (glucocorticoid receptor) was greater than 6.30.

COc1ccc2c(c1)CCc1ccccc1C2=Cc1ccc(N)cc1 (mixture of isomers) [Example 166, 4-(2-Methoxy-10,11-dihydro-dibenzo[a,d]cyclohepten-5-ylidenemethyl)-phenylamine] was tested, and the pKi (human MR; [1]) was greater than 6.30 and the pKi (glucocorticoid receptor) was greater than 5.00.

Work on COc1ccc2c(c1)CCc1ccccc1C2=Cc1cccc(O)c1 (mixture of isomers) [Example 167, 3-(2-Methoxy-10,11-dihydro-dibenzo[a,d]cyclohepten-5-ylidenemethyl)-phenol] yielded a pKi (human MR; [1]) greater than 6.30 and a pKi (glucocorticoid receptor) greater than 6.30.

COc1ccc2c(c1)CCc1ccccc1C2=Cc1ccc(O)cc1 (mixture of isomers) [Example 168, 4-(2-Methoxy-10,11-dihydro-dibenzo[a,d]cyclohepten-5-ylidenemethyl)-phenol] showed a pKi (human MR) greater than 6.30 and a pKi (glucocorticoid receptor) greater than 6.00.

Work on Oc1ccc(C=C2c3ccccc3CCc3cc(O)ccc32)cc1 (mixture of isomers) [Example 169, 5-(4-Hydroxy-benzylidene)-10,11-dihydro-5H-dibenzo[a,d]cyclohepten-2-ol] yielded a pKi (human MR; [1]) greater than 6.30 and a pKi (glucocorticoid receptor) greater than 6.30.

For CS(=O)(=O)Nc1cccc(C=C2c3ccccc3CCc3cc(O)c(O)cc32)c1 (mixture of isomers) [Example 171, N-[3-(2,3-Dihydroxy-10,11-dihydro-dibenzo[a,d]cyclohepten-5-ylidenemethyl)-phenyl]-methanesulfonamide], the pKi (human MR; [1]) was greater than 6.30 and the pKi (glucocorticoid receptor) was greater than 6.30.

For CS(=O)(=O)Nc1cccc(C=C2c3ccccc3CCc3c(Cl)cccc32)c1 (mixture of isomers) [Example 205(a), N-[3-(1-Chloro-10,11-dihydro-dibenzo[a,d]cyclohepten-5-ylidenemethyl)-phenyl]-methanesulfonamide], the pKi (human MR; [1]) was greater than 6.30 and the pKi (glucocorticoid receptor) was greater than 6.30.

CCS(=O)(=O)Nc1cccc(C=C2c3ccccc3CCc3c(Cl)cccc32)c1 (mixture of isomers) [Example 208(a), Ethanesulfonic acid [3-(1-chloro-10,11-dihydro-dibenzo[a,d]cyclohepten-5-ylidenemethyl)-phenyl]-amide] gave a pKi (human MR; [1]) greater than 6.30 and a pKi (glucocorticoid receptor) greater than 6.30.

With CS(=O)(=O)Nc1ccc(C=C2c3ccccc3CCc3c(Cl)cccc32)cc1 (mixture of isomers) [Example 210, N-[4-(1-Chloro-10,11-dihydro-dibenzo[a,d]cyclohepten-5ylidenemethyl)-phenyl]-methanesulfonamide] the pKi (human MR; [1]) was greater than 6.30 and the pKi (glucocorticoid receptor) was greater than 6.00.

O=[N+]([O-])c1cccc(/C=C2/c3ccccc3OCc3c(Cl)cccc32)c1 [Example 272, 7-Chloro-11-(3-nitro-benzylidene)-6,11-dihydro-dibenzo[b,e]oxepine] gave a pKi (glucocorticoid receptor) greater than 5.00.

In the case of CS(=O)(=O)Nc1cccc(/C=C2\c3ccccc3CCc3ccc(S(C)(=O)=O)cc32)c1 [Example 324], the pKi (glucocorticoid receptor) was greater than 6.00.

CCOc1ccc2c(c1)CCc1ccccc1C2=Cc1cccc(NS(C)(=O)=O)c1 [Example 331] gave a pKi (glucocorticoid receptor) greater than 6.30.

Work on CCCOc1ccc2c(c1)CCc1ccccc1C2=Cc1cccc(NS(C)(=O)=O)c1 [Example 332] yielded a pKi (glucocorticoid receptor) greater than 6.30.

For O=c1[nH]c2ccc(/C=C3/c4ccccc4COc4cc(F)ccc43)cc2[nH]1 [Example 631], the pKi (glucocorticoid receptor) was greater than 6.00.

COc1cccc2c1SCc1ccccc1C2=Cc1cccc(NS(C)(=O)=O)c1 [Example 686] was tested, and the pKi (glucocorticoid receptor) was greater than 6.30.

CCNC(=O)Nc1cccc(C=C2c3ccccc3CSc3c(C)cccc32)c1 [Example 689] gave a pKi (glucocorticoid receptor) greater than 6.30.

For O=S(=O)(Nc1cccc(/C=C2\c3ccccc3CSc3ccccc32)c1)c1ccc(Cl)c(Cl)c1 [Example 690], the pKi (glucocorticoid receptor) was greater than 6.00.

With CS(=O)(=O)Nc1cccc(C(C(=O)O)=C2c3ccccc3CCc3ccccc32)c1 [Example 754, (10,11-Dihydro-dibenzo[a,d]cyclohepten-5-ylidene)-(3-methanesulfonylamino-phenyl)-acetic acid] the pKi (glucocorticoid receptor) was greater than 6.30.
